Laboratory results reported in ChEMBL document CHEMBL1134024, “Synthesis and structure-activity studies of side-chain derivatized arylhydantoins for investigation as androgen receptor radioligands” (Bioorg Med Chem Lett, 2001).

molecular target: T1, Androgen receptor (Rattus norvegicus) (UniProt P15207); details: Prostate gland
T1 sequence (whole entry): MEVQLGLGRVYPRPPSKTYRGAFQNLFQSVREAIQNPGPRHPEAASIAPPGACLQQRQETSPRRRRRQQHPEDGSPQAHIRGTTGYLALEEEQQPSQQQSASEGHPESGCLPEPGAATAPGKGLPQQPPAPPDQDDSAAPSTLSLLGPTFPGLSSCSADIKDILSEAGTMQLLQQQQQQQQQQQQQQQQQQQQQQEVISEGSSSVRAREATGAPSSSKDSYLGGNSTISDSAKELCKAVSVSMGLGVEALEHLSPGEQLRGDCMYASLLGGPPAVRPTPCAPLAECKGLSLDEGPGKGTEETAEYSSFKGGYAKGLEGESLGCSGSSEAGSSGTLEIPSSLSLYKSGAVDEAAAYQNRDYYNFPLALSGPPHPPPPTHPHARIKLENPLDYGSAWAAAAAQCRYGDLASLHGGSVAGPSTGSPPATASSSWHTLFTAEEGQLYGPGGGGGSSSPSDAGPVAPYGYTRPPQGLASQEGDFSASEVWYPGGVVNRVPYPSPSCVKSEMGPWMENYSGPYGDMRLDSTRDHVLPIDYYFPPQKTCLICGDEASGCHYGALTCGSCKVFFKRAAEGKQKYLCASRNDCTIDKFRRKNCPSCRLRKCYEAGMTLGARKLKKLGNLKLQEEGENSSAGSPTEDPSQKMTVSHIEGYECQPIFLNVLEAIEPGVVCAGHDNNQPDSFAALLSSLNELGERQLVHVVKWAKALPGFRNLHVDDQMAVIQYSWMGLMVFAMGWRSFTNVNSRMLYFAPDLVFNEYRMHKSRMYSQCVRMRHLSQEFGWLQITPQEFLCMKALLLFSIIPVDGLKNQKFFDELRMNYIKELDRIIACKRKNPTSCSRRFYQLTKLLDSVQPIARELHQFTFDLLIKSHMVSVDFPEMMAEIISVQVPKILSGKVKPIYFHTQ
Description: Displacement of [3H]-mibolerone from rat prostate cytosolic Androgen receptor

Work on `CC1(C)C(=O)N(c2ccc(C#N)c(C(F)(F)F)c2)C(=O)N1CCCCO` [RU-58841] yielded a Ka of 1.2 nM.

molecular target: T2, Androgen receptor (Rattus norvegicus, UniProt P15207); test: Binding affinity against rat prostate cytosolic Androgen receptor using [3H]mibolerone as radioligand; details: not given
T2 sequence (P15207 whole entry): T1 sequence (whole entry)

In order of rising Ki:
1. CC1(C)C(=O)N(c2ccc(C#N)c(C(F)(F)F)c2)C(=O)N1C/C=C/I  13 nM
2. CC1(C)C(=O)N(c2ccc(C#N)c(C(F)(F)F)c2)C(=O)N1CCCCO [RU-58841]  26 nM
3. CN1C(=O)N(c2ccc(C#N)c(C(F)(F)F)c2)C(=O)C1(C)C  37 nM
4. CC1(C)C(=O)N(c2ccc(C#N)c(C(F)(F)F)c2)C(=O)N1CCCc1ccc(I)cc1  65 nM
5. COCCN1C(=O)N(c2ccc(C#N)c(C(F)(F)F)c2)C(=O)C1(C)C  120 nM
6. CC1(C)C(=O)N(c2ccc(C#N)c(C(F)(F)F)c2)C(=O)N1Cc1cccc(I)c1  123 nM
7. CC1(C)C(=O)N(c2ccc(C#N)c(C(F)(F)F)c2)C(=O)N1CCF  141 nM
8. CC1(C)C(=O)N(c2ccc(C#N)c(C(F)(F)F)c2)C(=O)N1Cc1ccc(I)cc1  150 nM
9. CC1(C)C(=O)N(c2ccc(C#N)c(C(F)(F)F)c2)C(=O)N1CCCF  321 nM
10. CC1(C)C(=O)N(c2ccc(C#N)c(C(F)(F)F)c2)C(=O)N1CCCc1cccc(I)c1  360 nM
11. CC1(C)C(=O)N(c2ccc(C#N)c(C(F)(F)F)c2)C(=O)N1CCc1ccc(I)cc1  415 nM
12. CC1(C)C(=O)N(c2ccc(C#N)c(C(F)(F)F)c2)C(=O)N1CCc1cccc(I)c1  809 nM
